For one assay, the target named is T1, GRK-3 (Homo sapiens, UniProt P35626).
T1 sequence (P35626 1-688): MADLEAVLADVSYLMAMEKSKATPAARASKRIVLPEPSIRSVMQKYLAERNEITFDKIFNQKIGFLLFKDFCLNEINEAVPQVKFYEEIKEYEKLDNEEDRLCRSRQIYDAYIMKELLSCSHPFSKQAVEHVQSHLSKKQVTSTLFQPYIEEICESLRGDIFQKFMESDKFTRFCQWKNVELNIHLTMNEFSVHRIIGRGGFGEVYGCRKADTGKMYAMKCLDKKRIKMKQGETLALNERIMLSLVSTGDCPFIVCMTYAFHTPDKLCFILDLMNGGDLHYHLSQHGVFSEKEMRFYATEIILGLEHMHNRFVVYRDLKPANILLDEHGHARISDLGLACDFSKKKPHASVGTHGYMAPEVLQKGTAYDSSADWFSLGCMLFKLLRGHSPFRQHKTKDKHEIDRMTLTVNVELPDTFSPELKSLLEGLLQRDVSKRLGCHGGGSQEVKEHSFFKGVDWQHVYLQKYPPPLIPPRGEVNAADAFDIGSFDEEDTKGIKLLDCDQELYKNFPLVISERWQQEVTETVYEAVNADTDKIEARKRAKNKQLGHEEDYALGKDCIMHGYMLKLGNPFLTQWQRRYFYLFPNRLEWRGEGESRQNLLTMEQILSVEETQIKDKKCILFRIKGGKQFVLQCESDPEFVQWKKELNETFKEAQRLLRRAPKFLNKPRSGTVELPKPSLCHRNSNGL
The assay is described as follows: luciferase-based biochemical kinase inhibition assay, GRK-3. The following applies: same luciferase assay; read-out: GRK-3 inhibition, Ki class. Here is the method:
(§1) The inhibition of G-protein-coupled receptor kinases including hGRK-2 was determined for the hydrazide compounds using a biochemical assay. The inhibition of GRK-3, GRK-5 and GRK-6 was also determined using the same assay for some of the hydrazide derivatives.
(§2) The protein kinase inhibition was determined using a biochemical assay utilizing the light emission of a luciferase reaction. The luciferase-based assay operates on the following reaction principles: [drawing 10]
(§3) An inhibitor of GRK-2 will increase in the amount of ATP in solution, as shown. Thus, an inhibitor of GRK-2 will drive the luciferase reaction to the right, resulting in more light emitted. The amount of light emitted is proportional to the inhibition resulting from the GRK-2 inhibitor. The luciferase-based assay was also used to test some of the hydrazides for the inhibition properties towards other kinases.

Another assay concerns the target GRK-6 (Homo sapiens, UniProt P43250). Kind of assay: luciferase-based biochemical kinase inhibition assay, GRK-6. The following applies: same luciferase assay; read-out: GRK-6 inhibition, Ki class. The procedure: as §1, §2, §3
A further assay has as its target T2, hGRK-2 (Homo sapiens, UniProt P25098).
T2 sequence (P25098 1-689): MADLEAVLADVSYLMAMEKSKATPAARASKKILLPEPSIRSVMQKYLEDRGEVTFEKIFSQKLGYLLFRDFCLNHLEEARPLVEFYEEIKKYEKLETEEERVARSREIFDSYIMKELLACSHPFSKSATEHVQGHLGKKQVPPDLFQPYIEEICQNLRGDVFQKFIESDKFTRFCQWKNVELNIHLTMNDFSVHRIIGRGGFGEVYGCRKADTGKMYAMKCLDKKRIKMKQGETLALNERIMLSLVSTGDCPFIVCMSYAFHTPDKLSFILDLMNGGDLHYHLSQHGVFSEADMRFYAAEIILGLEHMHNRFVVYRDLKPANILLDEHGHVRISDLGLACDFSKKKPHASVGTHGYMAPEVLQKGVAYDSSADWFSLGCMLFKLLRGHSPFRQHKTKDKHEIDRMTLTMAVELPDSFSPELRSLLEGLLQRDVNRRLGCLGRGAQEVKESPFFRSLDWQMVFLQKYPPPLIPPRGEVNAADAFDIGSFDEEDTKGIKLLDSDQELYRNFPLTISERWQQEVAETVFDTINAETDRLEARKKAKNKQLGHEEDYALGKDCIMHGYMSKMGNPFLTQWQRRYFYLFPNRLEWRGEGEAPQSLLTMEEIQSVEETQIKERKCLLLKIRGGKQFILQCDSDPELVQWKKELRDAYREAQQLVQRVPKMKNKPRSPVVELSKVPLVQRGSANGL
Kind of assay: luciferase-based (Kinase-Glo) biochemical kinase inhibition assay, hGRK-2. The following applies: for Ki: luciferase assay, casein substrate, 10 μM ATP, read-out: GRK-2 inhibition, Ki class. Summed up:
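Final conditions: 50 nM hGRK2, 20 μM casein, 10 μM ATP and 50 μM test compound in 4.5% DMSO, in HEPES pH 7.5 buffer with MgCl2, orthovanadate, CHAPS, BSA and DTT. Incubation ran 90-120 min at room temperature, targeting 20-30% ATP consumption. Remaining ATP was read by luminescence with diluted Kinase-Glo containing 0.01% trypan blue.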

The next assay deals with GRK-5 (Homo sapiens, UniProt P34947). Kind of assay: luciferase-based biochemical kinase inhibition assay, GRK-5. The following applies: same luciferase assay; read-out: GRK-5 inhibition, Ki class. The procedure:
The inhibition of G-protein-coupled receptor kinases including hGRK-2 was determined for the hydrazide compounds using a biochemical assay. […] The inhibition of GRK-3, GRK-5 and GRK-6 was also determined using the same assay for some of the hydrazide derivatives.
as §2, §3

Assay [1] concerns the target Beta 1 Adrenergic receptor (B1 wt). The assay is described as follows: Transfluor assay, ISO-induced arrestin-GFP translocation to Beta 1 Adrenergic receptor. The assay is classed as cell-based. The following applies: U2OS cells.
The test system of assay [2] is Beta 2 Adrenergic receptor. The assay is described as follows: cAMP accumulation in HEK-293 cells with isoproterenol. The assay is classed as cell-based. The following applies: Beta 2 Adrenergic receptor overexpressed, fixed concentration of isoproterenol, increased concentrations of compound. From the text: This is consistent with the inhibition of GRK-2 resulting in less translocation of arrestin-GFP, less desensitization, and consequently more signaling by the B2AR. With more receptors available now on the surface of the cell, more cAMP is being generated in the presence of isoproterenol.

Assay [3] concerns the target Beta 2 Adrenergic Receptor (B2 wt). The assay is described as follows: Transfluor assay, isoproterenol-induced arrestin-GFP translocation to Beta 2 Adrenergic Receptor. The assay is classed as cell-based. The conditions noted are these: U2OS cells.
A further assay relates to mu-opioid receptor. The following applies: U2OS cells.
Assay [4] is described as follows: Topical ocular composition of Example 103 administered to the eyes. The following applies: 0.50 wt % topical composition. The assay is classed as in vivo. Here is the method: Examples of such assays are described in the following reference, incorporated herein: C. Liljebris, G. Selen, B. Resul, J. Sternschantz, and U. Hacksell, “Derivatives of 17-Phenyl-18,19,20-trinorprostaglandin F2α Isopropyl Ester: Potential Antiglaucoma Agents”, Journal of Medicinal Chemistry, Vol. 38 (2) 1995, pp. 289-304.
Topical pharmaceutical compositions for lowering intraocular pressure are prepared by conventional methods and formulated as follows: […]
A compound according to this invention is used as the hydrazide derivative. […]

Usually Ki stands for a dissociation constant, usually derived from enzyme kinetics or from competition with a known ligand. What is called IC50 is the concentration that inhibits the measured activity by half.

Entries after “also recorded” stand apart in the source; their conditions may differ.

Sequence of GRK-6 (P43250 whole entry, species assumed): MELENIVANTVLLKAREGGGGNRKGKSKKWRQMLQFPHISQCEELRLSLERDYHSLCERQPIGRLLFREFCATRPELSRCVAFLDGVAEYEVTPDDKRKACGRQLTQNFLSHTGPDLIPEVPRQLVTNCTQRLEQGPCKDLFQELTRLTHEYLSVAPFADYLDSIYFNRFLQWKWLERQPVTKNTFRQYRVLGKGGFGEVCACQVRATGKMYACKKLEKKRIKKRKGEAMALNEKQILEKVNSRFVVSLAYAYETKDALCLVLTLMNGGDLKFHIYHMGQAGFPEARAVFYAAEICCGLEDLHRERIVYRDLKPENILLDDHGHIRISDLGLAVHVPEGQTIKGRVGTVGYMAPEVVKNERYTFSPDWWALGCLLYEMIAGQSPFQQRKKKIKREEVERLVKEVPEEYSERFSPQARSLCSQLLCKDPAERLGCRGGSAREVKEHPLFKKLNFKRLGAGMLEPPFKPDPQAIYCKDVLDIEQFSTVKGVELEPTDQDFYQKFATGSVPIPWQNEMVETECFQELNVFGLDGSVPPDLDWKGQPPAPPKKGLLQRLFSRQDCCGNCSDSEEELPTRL
Sequence of GRK-5 (P34947 whole entry, species assumed): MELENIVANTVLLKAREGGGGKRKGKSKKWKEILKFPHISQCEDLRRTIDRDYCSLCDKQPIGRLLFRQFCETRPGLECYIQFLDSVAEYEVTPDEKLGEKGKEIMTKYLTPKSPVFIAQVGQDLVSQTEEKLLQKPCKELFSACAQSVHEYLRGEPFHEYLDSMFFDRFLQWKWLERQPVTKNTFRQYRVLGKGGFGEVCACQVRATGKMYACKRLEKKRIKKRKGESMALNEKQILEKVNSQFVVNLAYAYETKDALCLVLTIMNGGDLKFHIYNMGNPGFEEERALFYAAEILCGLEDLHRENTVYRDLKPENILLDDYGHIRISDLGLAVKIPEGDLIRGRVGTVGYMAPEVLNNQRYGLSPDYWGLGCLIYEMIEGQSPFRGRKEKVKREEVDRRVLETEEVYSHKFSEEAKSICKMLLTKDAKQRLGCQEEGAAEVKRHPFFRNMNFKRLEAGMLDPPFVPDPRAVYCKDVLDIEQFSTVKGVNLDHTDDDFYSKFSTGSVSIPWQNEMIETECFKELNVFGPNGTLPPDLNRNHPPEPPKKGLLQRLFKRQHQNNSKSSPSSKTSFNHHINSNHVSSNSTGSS

Take `COc1cccc(NCC(=O)N/N=C/c2ccncc2)c1` [Example 43, (3-Methoxy-phenylamino)-acetic acid [1-pyridin-4-yl-meth-(E)-ylidene]-hydrazide]: the inhibitory constant (Ki) was 0.01 to 0.1 µM at GRK-3, more than 10 µM on GRK-6, 0.01 to 0.1 µM on hGRK-2 and 1 to 10 µM on GRK-5.

Turning to `O=C(CNc1cccc(Oc2ccccc2)c1)N/N=C/c1ccncc1` [Example 55, (3-Phenoxy-phenylamino)-acetic acid [1-pyridin-4-yl-meth-(E)-ylidene]-hydrazide], the Ki on GRK-3 is 0.1 to 1 µM; on GRK-6, more than 10 µM; on hGRK-2, 0.1 to 1 µM; at GRK-5, more than 10 µM.

Take `CNC(=O)c1cccc(NCC(=O)N/N=C/c2c(Cl)cncc2Cl)c1` [Example 13, 3-{[1-(3,5-Dichloro-pyridin-4-yl)-meth-(E)-ylidene-hydrazinocarbonylmethyl]-amino}-N-methyl-benzamide]: the Ki is 0.1 to 1 µM at GRK-3, more than 10 µM at GRK-6, 0.1 to 1 µM at hGRK-2 and 1 to 10 µM at GRK-5.

As to “3-{[1-Pyridin-4-yl-meth-(E)-ylidene-hydrazinocarbonylmethyl]-amino}-benzamide [Example 41]”, the Ki is 0.01 to 0.1 µM on GRK-3, more than 10 µM on GRK-6 and 0.01 to 0.1 µM at hGRK-2. The IC50 in assay [1] (60 minute pre-incubation, ISO-induced β-arrestin translocation, read-out: IC50 of the β1 arrestin (FIG. 2)) was more than 10 µM; in assay [3] (60 minute pre-incubation, ISO-induced β-arrestin translocation, read-out: IC50 of the β2 arrestin (FIG. 1)) it was 4 µM; at mu-opioid receptor (read-out: IC50 for the μ-opioid receptor (FIG. 3), 60 minute pre-incubation, morphine-induced β-arrestin translocation), approximately 0.15 µM. Moreover, the “inhibition of arrestin-GFP translocation to the B1 WT” value in assay [1] was “modest inhibition”. The “accumulation of cAMP” value in assay [2] is reported as “increased accumulation of cAMP”. The “inhibition of GRK-2, in words” value against hGRK-2 is recorded as “very good inhibitor of GRK-2”. Besides, in assay [3] (isoproterenol), the “inhibition of arrestin-GFP translocation to the B2 WT (F-grains)” value is listed as “stepwise reduction in translocation; also recorded: modest inhibition”. In the assay with mu-opioid receptor, the “inhibition of arrestin-GFP translocation to the μ opioid” value is on record as “strong inhibition”.

As to `Cc1ccc(Oc2cccc(NCC(=O)N/N=C/c3ccncc3)c2)cc1` [Example 85, (3-p-Tolyloxy-phenylamino)-acetic acid [1-pyridin-4-yl-meth-(E)-ylidene]-hydrazide], in assay [4] (drop twice per day), the allergic symptoms entry is “substantially decreases allergic symptoms” and the dry eye syndrome result is “relieves dry eye syndrome”. In addition, at hGRK-2, the Ki is 0.01 to 0.1 µM.

For the compound `O=C(CNc1cccc(OCc2ccccc2)c1)N/N=C/c1c(Cl)cncc1Cl` [Example 9, (3-Benzyloxy-phenylamino)-acetic acid [1-(3,5-dichloro-pyridin-4-yl)-meth-(E)-ylidene]-hydrazide], the Ki at GRK-3 is 0.1 to 1 µM; at GRK-6, more than 10 µM; on hGRK-2, 0.1 to 1 µM; on GRK-5, 1 to 10 µM.

Consider `NC(=O)c1cccc(NCC(=O)N/N=C/c2ccncc2)c1` [Example 51, 3-{[1-Pyridin-4-yl-meth-(E)-ylidene-hydrazinocarbonylmethyl]-amino}-benzamide], for which the “hyperemia, redness and ocular irritation” value in assay [4] (drop as needed) is “substantially decreases hyperemia, redness and ocular irritation”. For the same compound, the inhibition constant (Ki) on GRK-3 and on hGRK-2 was 0.1 to 1 µM each time.

As to `O=C(CNc1cccc(Oc2ccccc2)c1)N/N=C/c1c(Cl)cncc1Cl` [Example 15, (3-Phenoxy-phenylamino)-acetic acid [1-(3,5-dichloro-pyridin-4-yl)-meth-(E)-ylidene]-hydrazide], the inhibitory constant (Ki) at GRK-3 is 0.1 to 1 µM; on GRK-6, more than 10 µM; at hGRK-2 it was 0.1 to 1 µM; on GRK-5, 1 to 10 µM.

Regarding `COc1cccc(NCC(=O)N/N=C(\C)c2ccncc2)c1` [Example 88, (3-Methoxy-phenylamino)-acetic acid [1-pyridin-4-yl-eth-(E)-ylidene]-hydrazide], the inhibition constant Ki at GRK-3 is 0.1 to 1 µM; at GRK-6, more than 10 µM; at hGRK-2, 0.1 to 1 µM; at GRK-5 it was 1 to 10 µM.

In the case of `NC(=O)c1ccc(NCC(=O)N/N=C/c2c(Cl)cncc2Cl)cc1` [Example 28, 4-{[1-(3,5-Dichloro-pyridin-4-yl)-meth-(E)-ylidene-hydrazinocarbonylmethyl]-amino}-benzamide], in [4] (drop twice per day), the intraocular pressure entry was “substantially decreases intraocular pressure”. The Ki at hGRK-2 is more than 10 µM.

With `O=C(CNc1cccc(C(=O)NCCN2CCOCC2)c1)N/N=C/c1ccncc1` [Example 79, N-(2-Morpholin-4-yl-ethyl)-3-{[1-pyridin-4-yl-meth-(E)-ylidene-hydrazinocarbonylmethyl]-amino}-benzamide], in assay [4] (drop 4 times per day), the intraocular pressure entry was “substantially decreases intraocular pressure” and the neuroprotective agent entry is on record as “serves as a neuroprotective agent”. At hGRK-2, the Ki lay within 0.1 to 1 µM.

(Values after patent publication US20070135499A1 (Aerie Pharmaceuticals, Inc., priority 2005, published 2007).)
